# Where two headings read alike, the source gives them in different places.
# What was measured:
# [1] = biological target: acetyl-cholinesterase (AChE) (Electrophorus electricus, UniProt O42275); settings: cited from earlier work
# [2] = tested on: L929 mouse fibroblasts cells; design: method as in PMID 25798685; settings: 24-h incubation, cited from earlier work
# [3] = design: method as in PMID 25798685; settings: DPPH, cited from earlier work
# [4] = design: method as in PMID 25798685; settings: cited from earlier work
# [5] = design: method as in PMID 25798685; settings: RP-TLC, methanol/water 70/30, SD < 10%; cited from earlier work
# soybean lipoxygenase [6] = biological target: T1, soybean lipoxygenase (Glycine max, UniProt P08170); design: method as in PMID 25798685; settings: 100 μM; cited from earlier work
# T1 sequence (P08170 1-839): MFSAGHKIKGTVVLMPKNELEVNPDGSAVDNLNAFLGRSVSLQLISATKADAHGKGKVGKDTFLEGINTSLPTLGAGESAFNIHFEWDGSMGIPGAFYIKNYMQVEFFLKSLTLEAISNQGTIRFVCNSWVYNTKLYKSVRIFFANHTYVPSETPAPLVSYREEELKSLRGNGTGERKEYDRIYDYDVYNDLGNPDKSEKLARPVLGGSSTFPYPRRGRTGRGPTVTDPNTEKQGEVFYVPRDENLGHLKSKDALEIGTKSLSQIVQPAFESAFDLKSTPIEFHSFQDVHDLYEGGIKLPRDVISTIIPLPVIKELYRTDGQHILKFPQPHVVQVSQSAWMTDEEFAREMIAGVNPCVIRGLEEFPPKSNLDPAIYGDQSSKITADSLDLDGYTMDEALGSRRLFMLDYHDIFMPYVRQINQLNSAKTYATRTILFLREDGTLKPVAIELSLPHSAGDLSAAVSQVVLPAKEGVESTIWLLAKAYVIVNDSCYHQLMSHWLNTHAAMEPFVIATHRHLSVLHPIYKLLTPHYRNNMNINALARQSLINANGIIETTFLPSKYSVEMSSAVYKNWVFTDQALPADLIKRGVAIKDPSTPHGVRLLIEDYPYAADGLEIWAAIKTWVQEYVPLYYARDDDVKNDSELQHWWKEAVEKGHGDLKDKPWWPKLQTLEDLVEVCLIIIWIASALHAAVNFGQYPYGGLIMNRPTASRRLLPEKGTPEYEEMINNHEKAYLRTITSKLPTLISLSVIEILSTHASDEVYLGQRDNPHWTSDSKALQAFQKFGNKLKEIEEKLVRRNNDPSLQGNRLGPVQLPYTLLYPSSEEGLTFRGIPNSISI
# [7] = Reducing activity with the stable radical DPPH
# How it was run: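 DPPH (final 0.05 mM) in absolute ethanol mixed with an equal volume of compound at 0.05 or 0.1 mM, ethanol as control. Absorbance at 517 nm read at room temperature after 20 and 60 min, expressed as reducing activity RA%.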
# [8] = ABTS•+ decolorization assay
# How it was run: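 Compounds (10 mM DMSO stocks, diluted) added to ABTS•+ radical generated by potassium persulfate oxidation of ABTS. Decolorization followed as absorbance at room temperature, with Trolox as standard.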
# [9] = Inhibition of linoleic acid lipid peroxidation (AAPH)
# How it was run: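 Sodium linoleate oxidation was initiated by AAPH in 0.05 M phosphate buffer, pH 7.4, at 37 °C, with test compound present and DMSO as blank. Conjugated diene hydroperoxide formation was followed as the absorbance increase at 234 nm.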
# soybean lipoxygenase [10] = biological target: T1, soybean lipoxygenase; assay: biochemical; assay type: biochemical; settings: soybean LOX
# How it was run: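 Soybean LOX (enzyme solution 1/9 × 10^−4 w/v in saline) incubated at room temperature with sodium linoleate ([…]) in tris buffer pH 9. Compounds added from DMSO stocks. IC50 derived from several concentrations.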
# [11] = Lipophilicity as RM values by RP-TLC; assay type: physicochemical; design: key: RM = log[(1/Rf) − 1]; settings: methanol/water 70/30, SD < 10%
# How it was run: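 Reversed-phase TLC on silica gel plates impregnated with 5% (v/v) liquid paraffin, methanol/water 70/30 (v/v) mobile phase, saturated tanks at 24 °C, UV detection. RM = log[(1/Rf) − 1] from five Rf measurements.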
# [12] = tested on: L929 mouse fibroblasts cells; assay: Cytotoxicity, propidium iodide fluorescence method; assay type: cell-based; settings: 24-h incubation
# Method: The cytotoxicity of the synthesized derivatives against L929 mouse fibroblasts cells was determined using the propidium iodide (PI) fluorescence method in the presence of different concentrations (1–100 μM) of these compounds. The results are presented in Table 4 in the form of the % cell survival values as PI% for the examined compounds. […] Chalcones c7, c8, c11, and c12 follow.
# L929 mouse fibroblasts cells were cultured in EMEM supplemented with 10% horse serum, 2 mM L-glutamine, 1 mM sodium pyruvate, 0.1 mM nonessential amino acids, 1.5 g/L sodium bicarbonate, and 100 μg/mL penicillin–streptomycin at 37 °C in a humidified atmosphere with 5% CO2. L929 cells were plated into 24-well plates at a density […] and allowed to attach and grow for 24 h. The supernatant in each well then replaced with medium containing various concentrations (1, 10, 20, 50 and 100 μM) of compounds a5–12, c5–12, di, and dii–dvi, which presented the more interesting results in the in vitro experiments. After 24-h incubation, the supernatant was removed and the cells were washed with PBS. The cells were detached with 0.25% trypsin, transferred to FACS tubes, and then centrifuged (1600 rpm for 5 min) and the pellet washed with PBS. After washing, the cells in the pellet were incubated with 5 μL propidium iodide (PI) solution (1 mg/mL) for 1 min. The PI fluorescence (cell death) was determined with flow cytometry, FACS Calibur, Coulter Epics XL-MCL (Beckman, Inc., Mount Holly, NJ, USA). The analysis of flow cytometry data was performed with the WinMDI analysis program (Table 4).
# acetyl-cholinesterase (AChE), sequence (O42275 24-633): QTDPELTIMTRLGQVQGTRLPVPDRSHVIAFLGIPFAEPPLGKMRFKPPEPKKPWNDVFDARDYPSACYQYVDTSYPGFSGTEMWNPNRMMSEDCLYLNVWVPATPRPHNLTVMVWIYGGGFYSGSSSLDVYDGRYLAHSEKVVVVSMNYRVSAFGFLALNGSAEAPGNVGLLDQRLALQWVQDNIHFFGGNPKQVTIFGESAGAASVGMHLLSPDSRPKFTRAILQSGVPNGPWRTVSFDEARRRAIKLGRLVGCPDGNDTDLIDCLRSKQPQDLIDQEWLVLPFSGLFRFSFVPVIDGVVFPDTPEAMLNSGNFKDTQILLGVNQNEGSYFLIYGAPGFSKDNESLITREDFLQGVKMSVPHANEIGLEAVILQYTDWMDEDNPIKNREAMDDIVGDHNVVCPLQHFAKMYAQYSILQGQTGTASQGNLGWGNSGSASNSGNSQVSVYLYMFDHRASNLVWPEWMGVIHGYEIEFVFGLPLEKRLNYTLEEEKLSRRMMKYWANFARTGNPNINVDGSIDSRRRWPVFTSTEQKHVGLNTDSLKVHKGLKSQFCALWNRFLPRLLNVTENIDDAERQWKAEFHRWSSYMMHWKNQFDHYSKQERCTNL
SMILES,RA% 100 μM 20 min [7],RA% 100 μM 60 min [7],ABTS•+ Inhb. % @ 100 μM [8],AAPH% @ 100 μM (anti-lipid peroxidation) [9],% LOX Inhb. @ 100 μM (soybean lipoxygenase [10]),RM [11],1 μM Average (% pi) ± σ [12],10 μM Average (% pi) ± σ [12],20 μM Average (% pi) ± σ [12],50 μM Average (% pi) ± σ [12],100 μM Average (% pi) ± σ [12],other results
"O=C(/C=C/c1ccc(OCc2ccc(Br)cc2)cc1)c1ccc(O)cc1 [a1, (E)-3-(4-((4-bromobenzyl)oxy)phenyl)-1-(4-hydroxyphenyl) prop-2-en-1-one]",–,–,–,–,–,–,–,–,–,–,–,% AChE Inhb. @ 100 μM [1]: 7%; 1 μM Average (% pi) ± σ ([2]; 1 μM): 1 ± 0.6%; 10 μM Average (% pi) ± σ ([2]; 10 μM): 5 ± 2.8%; 20 μM Average (% pi) ± σ ([2]; 20 μM): 5.5 ± 0.71%; 50 μM Average (% pi) ± σ ([2]; 50 μM): 32 ± 4.9%; 100 μM Average (% pi) ± σ ([2]; 100 μM): 32 ± 4.9%; RA% 100 μM 20 min ([3]; 20 min): 1%; RA% 100 μM 60 min ([3]; 60 min): 6%; ABTS•+ Inhb. % @ 100 μM [4]: No; RM [5]: 0.34; % LOX Inhb. @ 100 μM (soybean lipoxygenase [6]): 14%
"Cc1ccc(/C=C/C(=O)c2ccc(O)cc2)o1 [a12, (E)-1-(4-hydroxyphenyl)-3-(5-methylfuran-2-yl) prop-2-en-1-one]",24%,9%,6%,45%,2%,−0.81,0.88 ± 0.31%,3.25± 2.11%,8.12 ± 0.32%,63.54 ± 6.16%,63.54 ± 6.16%,–
"O=C(/C=C/c1cccs1)c1ccc(OCCCOc2ccc(C(=O)/C=C/c3cccs3)cc2)cc1 [c5, (2E,2′E)-1,1′-((propane-1,3-diylbis-(oxy))bis-(4,1-phenylene)) bis-(3-(thiophen-2-yl)prop-2-en-1-one)]",No,no,No,46%,32%,0.43,0.32 ± 0.45%,0.97 ± 0.2%,3.02 ± 1.36%,7.26 ± 0.3%,7.26 ± 0.3%,–
"O=C(/C=C/C=C/c1ccccc1)c1ccc(OCCCOc2ccc(C(=O)/C=C/C=C/c3ccccc3)cc2)cc1 [c7, (2E,2′E,4E,4′E)-1,1′-((propane-1,3-diylbis(oxy))bis(4,1-phenylene))bis(5-phenylpenta-2,4-dien-1-one)]",No,no,No,82%,41%,−0.77,22.5 ± 11.64%,28.73 ± 11.78%,25.4 ± 8.42%,28.84 ± 5.62%,28.84 ± 5.62%,–
"CC(/C=C/C(=O)c1ccc(OCCCOc2ccc(C(=O)/C=C/C(C)=C/c3ccccc3)cc2)cc1)=C\c1ccccc1 [c8, (2E,2′E,4E,4′E)-1,1′-((propane-1,3-diylbis(oxy))bis(4,1-phenylene))bis(4-methyl-5-phenylpenta-2,4-dien-1-one)]",No,no,No,75%,26.5%,−0.85,35.72 ± 10.23%,29.05 ± 9.62%,35.69 ± 5.85%,38.7 ± 4.96%,38.7 ± 4.96%,–
"O=C(/C=C/C(Br)=C\c1ccccc1)c1ccc(OCCCOc2ccc(C(=O)/C=C/C(Br)=C\c3ccccc3)cc2)cc1 [c9, (2E,2′E,4E,4′E)-1,1′-((propane-1,3-diylbis(oxy))bis(4,1-phenylene))bis(4-bromo-5-phenylpenta-2,4-dien-1-one)]",No,no,No,32%,24.5%,−0.86,12.5 ± 10.31%,15.88 ± 6.31%,28.76 ± 2.74%,29.53 ± 6.87%,29.53 ± 6.87%,–
"O=C(/C=C/c1ccco1)c1ccc(OCCCOc2ccc(C(=O)/C=C/c3ccco3)cc2)cc1 [c10, (2E,2′E)-1,1′-((propane-1,3-diylbis(oxy))bis(4,1-phenylene))bis(3-(furan-2-yl)prop-2-en-1-one)]",No,no,11%,77%,57%,0.7,18.10 ± 11.82%,13.48 ± 10.36%,25.93 ± 9.73%,32.11 ± 9.38%,32.11 ± 9.38%,IC50 (soybean lipoxygenase [10]; read-out: LOX IC50): 85 µM
